Columns and labels:
KCNQ3*-W265L = KCNQ3*-W265L (Homo sapiens, UniProt O43525, A315T/W265L); assay: TEVC of homomeric KCNQ3*-W265L; type: cell-based
From the text: (§1) We generated cRNA transcripts encoding human KCNQ1, KCNQ2, KCNQ3, KCNQ4, KCNQ5 or GLRA1 (NM_001146040) (GenScript, Piscataway, NJ, USA) by in vitro transcription using the T7 polymerase mMessage mMachine kit (Thermo Fisher Scientific), after vector linearization, from cDNA sub-cloned into plasmids incorporating Xenopus laevis β-globin 5′ and 3′ UTRs flanking the coding region to enhance translation and cRNA stability. We quantified cRNA by spectrophotometry. We generated mutant KCNQ2 and KCNQ3 cDNAs by site-directed mutagenesis using a QuikChange kit (Stratagene, San Diego, CA) and prepared the corresponding cRNAs as above. […]
(§2) We performed TEVC at room temperature using an OC-725C amplifier (Warner Instruments, Hamden, CT) and pClamp10 software (Molecular Devices, Sunnyvale, CA) 2–5 days after cRNA injection as described in the section above. […] Currents were recorded in response to voltage pulses between −120 or −80 mV and + 40 mV at 20 mV intervals from a holding potential of −80 mV, to yield current-voltage relationships, current magnitude, and for quantifying activation rate. We analyzed data using Clampfit (Molecular Devices) and Graphpad Prism software (GraphPad, San Diego, CA, USA); values are stated as mean ± SEM. […]

KCNQ3*-R242A = molecular target: T1, KCNQ3*-R242A (Homo sapiens, UniProt O43525, A315T/R242A); assay: TEVC of homomeric KCNQ3*-R242A; type: cell-based; details: 100 µM
T1 sequence (O43525 1-872 R242A/A315T): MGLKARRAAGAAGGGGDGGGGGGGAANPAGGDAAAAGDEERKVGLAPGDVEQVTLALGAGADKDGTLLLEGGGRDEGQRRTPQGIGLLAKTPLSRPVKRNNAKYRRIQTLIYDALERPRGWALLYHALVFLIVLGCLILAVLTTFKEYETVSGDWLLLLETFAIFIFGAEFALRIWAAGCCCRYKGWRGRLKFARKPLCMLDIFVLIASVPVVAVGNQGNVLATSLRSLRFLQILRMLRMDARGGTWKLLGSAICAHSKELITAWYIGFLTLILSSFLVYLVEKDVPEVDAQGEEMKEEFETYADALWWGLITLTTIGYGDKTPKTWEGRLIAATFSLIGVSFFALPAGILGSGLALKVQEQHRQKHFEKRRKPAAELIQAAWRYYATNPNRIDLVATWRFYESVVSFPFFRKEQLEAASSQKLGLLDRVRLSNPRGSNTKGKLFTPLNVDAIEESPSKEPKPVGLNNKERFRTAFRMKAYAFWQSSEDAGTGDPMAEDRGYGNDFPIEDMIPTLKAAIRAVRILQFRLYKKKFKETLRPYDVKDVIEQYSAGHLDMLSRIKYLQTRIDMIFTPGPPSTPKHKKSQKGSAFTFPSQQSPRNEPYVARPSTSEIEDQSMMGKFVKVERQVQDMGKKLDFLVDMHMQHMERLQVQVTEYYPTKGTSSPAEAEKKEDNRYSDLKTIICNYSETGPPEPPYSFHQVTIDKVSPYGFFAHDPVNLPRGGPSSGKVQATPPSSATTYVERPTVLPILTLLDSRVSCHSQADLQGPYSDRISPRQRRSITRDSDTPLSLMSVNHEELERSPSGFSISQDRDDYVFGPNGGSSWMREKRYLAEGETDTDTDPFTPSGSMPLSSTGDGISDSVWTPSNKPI
From the text: as §1, §2

KCNQ4 = KCNQ4 (Homo sapiens, UniProt P56696); assay: TEVC of homomeric KCNQ4 expressed in Xenopus oocytes; type: cell-based; details: dose response
From the text: (§3) We generated cRNA transcripts encoding human KCNQ1, KCNQ2, KCNQ3, KCNQ4, KCNQ5 or GLRA1 (NM_001146040) (GenScript, Piscataway, NJ, USA) by in vitro transcription using the T7 polymerase mMessage mMachine kit (Thermo Fisher Scientific), after vector linearization, from cDNA sub-cloned into plasmids incorporating Xenopus laevis β-globin 5′ and 3′ UTRs flanking the coding region to enhance translation and cRNA stability. We quantified cRNA by spectrophotometry. We generated mutant KCNQ2 and KCNQ3 cDNAs by site-directed mutagenesis using a QuikChange kit (Stratagene, San Diego, CA) and prepared the corresponding cRNAs as above. We injected defolliculated stage V and VI Xenopus laevis oocytes (Ecocyte Bioscience, Austin, TX and Xenoocyte, Dexter, MI) with KCNQ channel α subunit (5-20 ng) or GLRA1 (20 ng) cRNAs. We incubated the oocytes at 16 °C in Barth’s saline solution (Ecocyte Bioscience) containing penicillin and streptomycin, with daily washing, for 2–5 days prior to two-electrode voltage-clamp (TEVC) recording.
We performed TEVC at room temperature using an OC-725C amplifier (Warner Instruments, Hamden, CT) and pClamp10 software (Molecular Devices, Sunnyvale, CA) 2–5 days after cRNA injection as described in the section above. For recording, oocytes were placed in a small-volume oocyte bath (Warner) and viewed them with a dissection microscope. Chemicals were sourced from Sigma, Matrix Scientific and Santa Cruz. […] All stock solutions were diluted in bath solution on the day of experiments. KCNQ2/3 channel activation was screened for using either 30 µM or 100 µM concentrations of each of the six compounds, then dose responses were conducted as appropriate. Bath solution was (in mM): 96 NaCl, 4 KCl, 1 MgCl2, 1 CaCl2, 10 HEPES (pH 7.6). Compounds were introduced into the oocyte recording bath by gravity perfusion at a constant flow of 1 ml per minute for 3 min prior to recording. Pipettes were of 1–2 MΩ resistance when filled with 3 M KCl. Currents were recorded in response to voltage pulses between −120 or −80 mV and + 40 mV at 20 mV intervals from a holding potential of −80 mV, to yield current-voltage relationships, current magnitude, and for quantifying activation rate. We analyzed data using Clampfit (Molecular Devices) and Graphpad Prism software (GraphPad, San Diego, CA, USA); values are stated as mean ± SEM. We plotted raw or normalized tail currents versus prepulse voltage and fitted with a single Boltzmann function:1 g=(A1−A2)/1+exp(V12−V)∕VS+A2, where g is the normalized tail conductance, A1 is the initial value at −∞, A2 is the final value at +∞, V1/2 is the half-maximal voltage of activation and Vs the slope factor. Activation, deactivation, wash-in and washout kinetics were fitted with single exponential functions to yield a τ value.

KCNQ3* = KCNQ3* (Homo sapiens, UniProt O43525, A315T); assay: [3H]GABA binding and competition, oocytes expressing KCNQ3*; details: 100 µM
Description: Oocytes were then washed four times in 16 °C ND96, transferred to individual wells in a 96 well plate and lysed in 0.2% SDS in ND96. Each oocyte lysate was transferred to a scintillation vial containing 5 ml Cytoscint scintillation cocktail fluid (MP Biomedicals, Santa Ana, CA). Vials were capped, shaken, and then allowed to sit at room temperature for at least 30 min before scintillation counting in a Beckmann Coulter LS6500 liquid scintillation counter.

KCNQ1 = KCNQ1 (Homo sapiens, UniProt P51787); assay: TEVC of homomeric KCNQ1 expressed in Xenopus oocytes; type: cell-based; details: dose response, ΔV0.5act
From the text: as §3
as §2, with “above. For recording, oocytes were placed in a small-volume oocyte bath (Warner) and viewed them with a dissection microscope. Chemicals were sourced from Sigma, Matrix Scientific and Santa Cruz. […] All stock solutions were diluted in bath solution on the day of experiments. KCNQ2/3 channel activation was screened for using either 30 µM or 100 µM concentrations of each of the six compounds, then dose responses were conducted as appropriate.” for “above.”

CS(=O)(=O)N(CC(=O)O)c1cccc(F)c1 [3FMSG]
maximal efficacy, KCNQ3*-W265L versus KCNQ3* (KCNQ3*-W265L): reduced by half
reduction of sensitivity by the W265L mutation versus KCNQ3* (KCNQ3*-W265L): 44 fold
effect on nonfunctional KCNQ3*-R242A (KCNQ3*-R242A): awakened neither by 3FMSG nor retigabine
effects on KCNQ4 (KCNQ4): negligible or much less potent effects
competition of GABA binding to KCNQ3* (KCNQ3*): able to compete out GABA binding
effects on KCNQ1 (KCNQ1): negligible or much less potent effects
